Source: patent publication US20250186456A1, “PYRIMIDINE-FUSED CYCLIC COMPOUND AND PREPARATION METHOD AND USE THEREOF” (Genfleet Therapeutics (Shanghai) Inc., priority 2021, published 2025)

What was measured:
Assay type in all cases: cell-based, human
[1] = tested on: p-ERK in AGS cells (KRAS G12D mutation); experiment: Cell p-ERK assay (HTRF, Advance ERK phospho-T202/Y204 kit); details: Homo sapiens; AGS cells, 3 hours incubation with compound, HTRF; read-out: AGS p-ERK IC50
Experimental: AGS was purchased from ATCC; catalog No: CRL-1739; F12K was purchased from Gibco; catalog No: 21127-022; FBS was purchased from Gibco; catalog No: 10099-141C; trypsin (containing EDTA) was purchased from Gibco, catalog No: 25200-072; DMSO was purchased from VWRAMRESCO; catalog No: 0231-500 ML; 96-well cell culture plates were purchased from Corning; catalog No: 3599; white opaque 96-well plates were purchased from Cisbio; catalog No: 66PL96025; Advance ERK phospho-T202/Y204 kit was purchased from Cisbio; catalog No: 64AERPEH; cell counters were purchased from CHEMOMETEC; model No: NC-200; microplate reader was purchased from PerkinElmer; model No: Envison.
AGS is an endogenous human gastric adenocarcinoma cell line containing the KRAS^G12D mutation, cultured in F12K+10% FBS medium. On the first day of the experiment, cells in the logarithmic growth phase were taken, digested with trypsin (containing EDTA), collected, and counted. Approximately 20000 cells/well were seeded in a 96-well cell culture plate and cultured overnight in an incubator with 5% CO2. 1000X stock solutions of compounds at a 3.16-fold concentration gradient were prepared using DMSO, and diluted 200-fold into a 5X compound stock solution using the medium described above. The 5X compound stock solution was added to each cell culturing well the day after cell seeding at a final concentration of 1X and a DMSO content of 0.1%. DMSO was used as a control in the experiment. After the compound was added and the incubation was kept for 3 hours, the medium in the culture wells was removed. 50 μl of Cell lysis solution (from Advance ERK phospho-T202/Y204 kit, the same below) was added to each well, mixed well, and incubated for 30 minutes and then 16 μl of the mixed solution was transferred to a white opaque 96-well plate, another 16 μl of cell lysis solution was added to a well as a blank well. After transferring, 4 μl of p-ERK HTRF antibody mixture (from Advance ERK phospho-T202/Y204 kit) was added to each well. After incubation for 4 hours, HTRF fluorescence value (RLU) was read by a microplate reader, and p-ERK level inhibition rate (IR (%)=(RLU control-RLU compound)/(RLU control-RLU blank)×100%) of the compounds was calculated. The concentration of the compounds and corresponding cell p-ERK level inhibition rate were fitted using Prism 8 four-parameters method, and the IC50 value was calculated.

AGS cells (KRAS G12D) = experiment: Cell proliferation inhibition assay, 3D, CellTiter-Glo 3D, AGS; details: Homo sapiens, 120 h, AGS 3D sphere model, 5 days incubation
Excerpt: (§1) AsPC-1 was purchased from ATCC; catalog No: CRL-1682; AGS was purchased from ATCC; catalog No: CRL-1739; RPMI1640 was purchased from Gibco; catalog No: 11875-093 2235123; F12K was purchased from Gibco; catalog No: 21127-022; FBS was purchased from Gibco; catalog No: 10099-141C; trypsin (containing EDTA) was purchased from Gibco; catalog No: 25200-072; CellTiter Glo-3D was purchased from Progema; catalog No: G9683; 384-well sphere plates were purchased from Corning; catalog No: 3830; white opaque 384-well plates were purchased from Corning; catalog No: 3570; cell counters were purchased from CHEMOMETEC; model: NC-200; microplate reader was purchased from PerkinElmer; model: Envison;
(§2) AsPC-1 is an endogenous human pancreatic cancer cell containing KRAS^G12D mutation, cultured in RPMI-1640 medium containing 10% FBS; AGS is a human gastric cancer cell line containing KRAS^G12D, cultured in F-12K medium containing 10% FBS. Cells in the logarithmic growth phase were taken, digested with trypsin (containing EDTA), collected, and counted. 800 AsPC-1 cells/well or 400 AGS cells/well, respectively, were seeded in a 384-well sphere plate and cultured overnight at 5% CO2 to establish a 3D cell model. 1000X stock solutions of compounds at a 3.16-fold concentration gradient of were prepared using DMSO, diluted 100-fold into a 10X compound stock solution using the medium described above. The 10X compound stock solution was added to each cell on 2nd day after cell seeding at a final concentration of 1X and a DMSO content of 0.1%. DMSO was used as a control in the experiment, and the medium was used as blank. After the addition of the compounds, the cells were incubated for 5 days. 30 μl of CellTiter-Glo work solution was added to each well, mixed well, and incubated for 30 minutes. After standing at room temperature for 30 minutes, 40 μl of the mixed solution was transferred to an opaque 384-well plate with a white clear bottom. Luminescence chemiluminescence value was read by a microplate reader, and the cell proliferation inhibition rate (IR (%)=(RLU control-RLU compound)/(RLU control-RLU blank)×100%) was calculated. The gradiently diluted concentration of the compounds and corresponding cell proliferation inhibition rate were fitted using XLFit four-parameters method, and the IC50 value was calculated. […] The results of some exemplary compounds are shown in Table 2 (“−” represents untested).

[2] = tested on: AsPC-1 cells (KRAS G12D mutation); experiment: Cell proliferation inhibition assay, 3D, CellTiter-Glo 3D, AsPC-1; details: Homo sapiens, ASPC1, 120 h, AsPC-1 3D sphere model, 5 days incubation
Excerpt: as §1, §2

Structure (SMILES)	IC50 [1] [nM]	IC50 (AGS cells (KRAS G12D)) [nM]	IC50 [2] [nM]
C#Cc1c(F)ccc2cccc(-c3nc4c5c(nc(OCC67CCCN6CCC7=CF)nc5c3F)N3C[C@H]5CC[C@H](N5)[C@H]3[C@H](C)O4)c12 (stereo partly drawn) [Example Z611, (5S,5aS,68,9R)-2-(8-ethynyl-7-fluoronaphthalen-1-yl)-1-fluoro-12-((1-(fluoromethylene)tetrahydro-1H-pyrrolizin-7a (5H)-yl)methoxy)-5-methyl-5a,6,7,8,9,10-hexahydro-5H-4-oxa-3,10a,11,13,14-pentaaza-6,9-methanonaphtho[1,8-ab]heptalene]	19.6	10.4	49.1
C#Cc1c(F)ccc2cc(O)cc(-c3nc4c5c(nc(OCC67CC(=C)CN6CC(=C)C7)nc5c3F)N3C[C@H]5CC[C@H](N5)[C@H]3[C@H](C)O4)c12 [Example Z553, 4-((5S,5aS,6S,9R)-12-((2,6-dimethylenetetrahydro-1H-pyrrolizin-7a (5H)-yl)methoxy)-1-fluoro-5-methyl-5a,6,7,8,9,10-hexahydro-5H-4-oxa-3,10a, 11,13,14-pentaaza-6,9-methanonaphtho[1,8-ab]heptalen-2-yl)-5-ethynyl-6-fluoronaphthalen-2-ol]	0.48	0.53	9.13
C#Cc1c(F)ccc2cccc(-c3nc4c5c(nc(OCC67CC(=C)CN6C[C@H](OC)C7)nc5c3F)N3C[C@H]5CC[C@H](N5)[C@H]3[C@H](C)O4)c12 (stereo partly drawn) [Example Z691, (5S,5aS,6S,9R)-2-(8-Ethynyl-7-Fluoronaphthalen-1-Yl)-1-Fluoro-12-(((2R)-2-Methoxy-6-Methylenetetrahydro-1H-Pyrrolizin-7a (5H)-Yl)Methoxy)-5-Methyl-5a,6,7,8,9,10-Hexahydro-5H-4-Oxa-3,10a,11,13,14-Pentaaza-6,9-Methanonaphtho[1,8-Ab]Heptalene]	14.2	54.6	87.9
C=C1CCN2C[C@H](F)CC12COc1nc2c3c(nc(-c4cc(N)c(F)c5ccc(F)c(F)c45)c(F)c3n1)O[C@@H](C)[C@@H]1[C@@H]3CC[C@H](CN21)N3 (stereo partly drawn) [Example Z731, 1,5,6-trifluoro-4-((5S, 5aS,6S,9R)-1-fluoro-12-(((6R)-6-fluoro-1-methylenetetrahydro-1H-pyrrolizin-7a (5H)-yl)methoxy)-5-methyl-5a,6,7,8,9,10-hexahydro-5H-4-oxa-3,10a, 11,13,14-pentaaza-6,9-methanonaphtho[1,8-ab]heptalene-2-yl) naphthalen-2-amine]	1.6	5.7	15.8
C#Cc1c(F)ccc2cccc(-c3nc4c5c(nc(OC[C@@]67CCCN6C[C@@H]6C[C@@H]67)nc5c3F)N3C[C@H]5CC[C@H](N5)[C@H]3[C@H](C)O4)c12 (single isomer, unassigned) [Example Z626-2]	20.6	28.2	56.6
C#Cc1cccc2cc(N)cc(-c3nc4c5c(nc(OC[C@@H]6CC(F)(F)CN6C)nc5c3F)N3C[C@H]5CC[C@H](N5)[C@H]3[C@H](C)O4)c12 [Example Z724, 4-((5S,5aS,6S,9R)-12-(((S)-4,4-Difluoro-1-Methylpyrrolidin-2-Yl)Methoxy)-1-Fluoro-5-Methyl-5a,6,7,8,9,10-Hexahydro-5H-4-Oxa-3,10a,11,13,14-Pentaaza-6,9-Methanonaphtho[1,8-Ab]Heptalene-2-Yl)-5-Ethynylnaphthalen-2-Amine]	45.3	92	196
C#Cc1cccc2cc(N)cc(-c3nc4c5c(nc(O[C@@H]6CCC[C@H]6O)nc5c3F)N3C[C@H]5CC[C@H](N5)[C@H]3[C@H](C)O4)c12 [Example Z718, (1R,2R)-2-(((5S,5aS,6S,9R)-2-(3-amino-8-ethynylnaphthalen-1-yl)-1-fluoro-5-methyl-5a,6,7,8,9,10-hexahydro-5H-4-oxa-3,10a,11,13,14-pentaaza-6,9-methanonaphtho[1,8-ab]heptalen-12-yl)oxy)cyclopentan-1-ol]	157	455	429
C#Cc1c(F)ccc2cccc(-c3nc4c5c(nc(OCC67CC(=C)CN6C[C@@H](F)C7)nc5c3F)N3C[C@H]5CC[C@H](N5)[C@H]3[C@H](C)O4)c12 (stereo partly drawn) [Example Z634, (5S,5aS,6S,9R)-2-(8-ethynyl-7-fluoronaphthalen-1-yl)-1-fluoro-12-(((2S)-2-fluoro-6-methylenetetrahydro-1H-pyrrolizin-7a (5H)-yl)methoxy)-5-methyl-5a,6,7,8,9,10-hexahydro-5H-4-oxa-3,10a,11,13,14-pentaaza-6,9-methanonaphtho[1,8-ab]heptalene]			883
C#Cc1c(F)ccc2cccc(-c3nc4c5c(nc(OCC67C[C@H](OC)CN6CCC7=C)nc5c3F)N3C[C@H]5CC[C@H](N5)[C@H]3[C@H](C)O4)c12 (stereo partly drawn) [Example Z694, (5S,5aS,6S,9R)-2-(8-ethynyl-7-fluoronaphthalen-1-yl)-1-fluoro-12-(((6S)-6-methoxy-1-methylenetetrahydro-1H-pyrrolizin-7a (5H)-yl)methoxy)-5-methyl-5a,6,7,8,9,10-hexahydro-5H-4-oxa-3,10a, 11,13,14-pentaaza-6,9-methanonaphtho[1,8-ab]heptalene]		397	405
C=C1CN2CCCC2(COc2nc3c4c(nc(-c5cccc6cccc(Cl)c56)c(F)c4n2)O[C@@H](CC)[C@@H]2[C@@H]4CC[C@H](CN32)N4)C1 (stereo partly drawn) [Example Z596, (5S,5aS,6S,9R)-2-(8-chloronaphthalen-1-yl)-5-ethyl-1-fluoro-12-((2-methylenetetrahydro-1H-pyrrolizin-7a (5H)-yl)methoxy)-5a,6,7,8,9,10-hexahydro-5H-4-oxa-3,10a,11,13,14-pentaaza-6,9-methanonaphtho[1,8-ab]heptalene]		268	411
C#Cc1c(F)ccc2cccc(-c3nc4c5c(nc(OCC67CC(=C)CN6CC[C@H]7OC)nc5c3F)N3C[C@H]5CC[C@H](N5)[C@H]3[C@H](C)O4)c12 (stereo partly drawn) [Example Z704, (58,5aS,6S,9R)-2-(8-ethynyl-7-fluoronaphthalen-1-yl)-1-fluoro-12-(((1R)-1-methoxy-6-methylenetetrahydro-1H-pyrrolizin-7a (5H)-yl)methoxy)-5-methyl-5a,6,7,8,9,10-hexahydro-5H-4-oxa-3,10a, 11, 13,14-pentaaza-6,9-methanonaphtho[1,8-ab]heptalene]	542		688
